{
  "source": "patent US20080171697A1",
  "about": "“Peptides Having For Example Antiangiogenic Activity and Applications Thereof In Therapeutics” (priority 2003, published 2008)",
  "key": {"[1]": {"system": "HUVECs", "assay": "Study of the peptide entry process in HUVECs", "format": "cell-based, human", "conditions": "for entry of the peptide into HUVECs: cotreatment with dextran beads for 5 h", "excerpt": "No entry of the FITC-CycRAD peptide into HUVECs, nor entry of the FITC-CycRGD peptide into HeLas is observed."}, "[2]": {"system": "HUVEC cells", "assay": "Cytochrome c release in cellula (microscopy, anti-cytochrome c and anti-VDAC)", "format": "cell-based, human", "conditions": "24 h of treatment, 10 μM"}, "[3]": {"system": "HUVECs", "assay": "Intracellular routing of TEAM-VP (confocal microscope)", "format": "cell-based, human", "conditions": "for codistribution with the lysosomes (anti-Lamp2-FITC): Streptavidin-Texas Red; for codistribution with the mitochondria (anti-VDAC): Streptavidin-FITC", "experimental": "HUVECs treated with TEAM-VP for 8, 24 and 32 h are observed using a confocal microscope."}, "[4]": {"system": "HUVEC cells", "assay": "Drop in mitochondrial membrane potential in cellula (JC-1, microscope)", "format": "cell-based, human", "conditions": "HUVEC cells treated for 16-24 h with 15 μM, JC-1 labeling"}, "[5]": {"target": "T1, αVβ3 integrins at the surface of endothelial cells (human, UniProt P06756 31-1048; P05106 27-788)", "T1 construct": "whole, on cells; Native integrin on HUVEC cells; the cells also carry other integrins (αVβ5 was stained as well); also called αVβ3 receptors", "T1 sequence (P06756 31-1048, chain 1 of 2)": "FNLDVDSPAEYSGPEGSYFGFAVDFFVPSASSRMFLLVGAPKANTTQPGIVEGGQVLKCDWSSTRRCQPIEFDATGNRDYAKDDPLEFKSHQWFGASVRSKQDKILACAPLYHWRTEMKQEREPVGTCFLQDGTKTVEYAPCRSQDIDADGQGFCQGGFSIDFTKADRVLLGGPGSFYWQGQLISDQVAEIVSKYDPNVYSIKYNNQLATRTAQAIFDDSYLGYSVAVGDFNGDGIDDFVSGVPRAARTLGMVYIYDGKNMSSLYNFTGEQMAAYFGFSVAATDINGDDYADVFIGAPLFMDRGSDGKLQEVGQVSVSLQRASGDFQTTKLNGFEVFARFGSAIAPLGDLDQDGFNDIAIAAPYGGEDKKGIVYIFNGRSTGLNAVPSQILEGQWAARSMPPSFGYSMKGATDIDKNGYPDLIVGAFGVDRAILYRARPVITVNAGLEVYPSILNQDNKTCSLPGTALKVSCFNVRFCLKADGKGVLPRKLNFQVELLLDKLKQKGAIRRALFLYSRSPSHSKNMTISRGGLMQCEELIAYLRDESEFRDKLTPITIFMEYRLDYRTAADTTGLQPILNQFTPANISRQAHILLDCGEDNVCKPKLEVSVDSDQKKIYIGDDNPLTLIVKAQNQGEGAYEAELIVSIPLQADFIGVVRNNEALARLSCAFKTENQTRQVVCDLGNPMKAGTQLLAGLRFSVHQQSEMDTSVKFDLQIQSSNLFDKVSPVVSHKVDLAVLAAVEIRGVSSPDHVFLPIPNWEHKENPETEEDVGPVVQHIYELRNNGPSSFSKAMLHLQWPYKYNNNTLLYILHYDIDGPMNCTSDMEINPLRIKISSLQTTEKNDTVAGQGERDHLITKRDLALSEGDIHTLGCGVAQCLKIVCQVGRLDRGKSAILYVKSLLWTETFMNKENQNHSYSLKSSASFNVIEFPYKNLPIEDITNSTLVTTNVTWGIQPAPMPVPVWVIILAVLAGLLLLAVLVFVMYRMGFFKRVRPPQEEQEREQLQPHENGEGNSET", "T1 sequence (P05106 27-788, chain 2 of 2)": "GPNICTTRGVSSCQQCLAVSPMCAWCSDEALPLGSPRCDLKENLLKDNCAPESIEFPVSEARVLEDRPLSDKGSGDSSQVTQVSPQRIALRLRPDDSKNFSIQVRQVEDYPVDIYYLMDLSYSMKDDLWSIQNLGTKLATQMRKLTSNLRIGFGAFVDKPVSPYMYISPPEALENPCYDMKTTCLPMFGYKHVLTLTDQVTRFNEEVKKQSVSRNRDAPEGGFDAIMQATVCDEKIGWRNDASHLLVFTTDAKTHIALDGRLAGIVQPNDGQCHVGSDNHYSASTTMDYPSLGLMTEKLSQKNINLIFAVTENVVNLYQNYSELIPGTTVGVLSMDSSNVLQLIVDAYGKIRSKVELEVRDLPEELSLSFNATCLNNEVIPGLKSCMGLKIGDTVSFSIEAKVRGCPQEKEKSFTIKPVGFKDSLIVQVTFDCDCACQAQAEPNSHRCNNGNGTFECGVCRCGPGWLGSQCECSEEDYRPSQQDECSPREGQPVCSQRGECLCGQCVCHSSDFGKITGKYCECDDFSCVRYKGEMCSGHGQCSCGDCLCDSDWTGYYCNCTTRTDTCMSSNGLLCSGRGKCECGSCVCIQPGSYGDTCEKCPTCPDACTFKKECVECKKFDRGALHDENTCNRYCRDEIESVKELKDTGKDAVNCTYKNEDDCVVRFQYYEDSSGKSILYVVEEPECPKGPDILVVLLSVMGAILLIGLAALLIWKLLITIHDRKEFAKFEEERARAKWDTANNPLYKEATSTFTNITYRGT", "assay": "peptide brought into contact with endothelial cells; endocytosis, confocal microscopy"}, "[6]": {"target": "T1, αVβ3 integrins at the surface of …", "assay": "flow cytometry of FITC-labeled peptide on HUVEC cells (FIG. 2)", "description": "The HUVEC cells were or were not preincubated for 30 min at ambient temperature with 200 μM of nonlabeled CycRGD peptide before the addition of FITC-CycRGD peptide (10 μM) for 45 min., and were analyzed by flow cytometry (FIG. 2b)."}},
  "note": "Positions of bridges follow the written chain, without caps; N, C: chain ends. No end group written: not given here.",
  "data": [
    {"molecule": "GG*CRADMFG*CGG-amide (FITC, cyclised, GG/CGG flanks, amide) [FITC-CycRAD]", "values": [
      {"measurement": "entry of the peptide into HUVECs", "setting": "[1]", "value": "No entry"}
    ]},
    {"molecule": "GG*CRGDMFG*C-GG-LLFIHFRIGSRHSRIG-amide (GGCRGDMFGCGGLLFIHFRIGSRHSRIG-NH2; disulfide 3-10; N-terminus assumed; SMILES CC[C@H](C)[C@H](NC(=O)[C@H](CCCNC(=N)N)NC(=O)[C@H](CO)NC(=O)[C@H](Cc1c[nH]cn1)NC(=O)[C@H](CCCNC(=N)N)NC(=O)[C@H](CO)NC(=O)CNC(=O)[C@@H](NC(=O)[C@H](CCCNC(=N)N)NC(=O)[C@H](Cc1ccccc1)NC(=O)[C@H](Cc1c[nH]cn1)NC(=O)[C@@H](NC(=O)[C@H](Cc1ccccc1)NC(=O)[C@H](CC(C)C)NC(=O)[C@H](CC(C)C)NC(=O)CNC(=O)CNC(=O)[C@@H]1CSSC[C@H](NC(=O)CNC(=O)CN)C(=O)N[C@@H](CCCNC(=N)N)C(=O)NCC(=O)N[C@@H](CC(=O)O)C(=O)N[C@@H](CCSC)C(=O)N[C@@H](Cc2ccccc2)C(=O)NCC(=O)N1)[C@@H](C)CC)[C@@H](C)CC)C(=O)NCC(N)=O) [TEAM-VP]", "values": [
      {"measurement": "entry of the peptide under sodium azide+deoxyglucose", "setting": "[1]; HUVECs, treatment with sodium azide+deoxyglucose", "value": "inhibited by treatment with sodium azide+deoxyglucose"},
      {"measurement": "release of cytochrome c in cellula", "setting": "[2]", "value": "Release of cytochrome C observed"},
      {"measurement": "codistribution with the lysosomes (anti-Lamp2-FITC)", "setting": "[3]; 8 h of treatment", "value": "codistributes with the lysosomes"},
      {"measurement": "codistribution with the mitochondria (anti-VDAC)", "setting": "[3]; 24 h", "value": "partially codistributes"},
      {"measurement": "codistribution with the lysosomes (anti-Lamp2-FITC)", "setting": "[3]; 24 h of treatment", "value": "would appear to leave these organelles"},
      {"measurement": "codistribution with the mitochondria (anti-VDAC)", "setting": "[3]; 32 h", "value": "totally codistributes"},
      {"measurement": "codistribution with the Golgi apparatus (anti-Golgin)", "setting": "[3]; throughout the treatment (8, 24 and 32 h)", "value": "No codistribution"},
      {"measurement": "drop in mitochondrial membrane potential in cellula", "setting": "[4]", "value": "Drop in potential observed"}
    ]},
    {"molecule": "GG*CRGDMFG*CGG-amide (GGCRGDMFGCGG-NH2; disulfide 3-10; also: labeled with FITC in the binding assays) [FITC-CycRGD]", "values": [
      {"measurement": "colocalization with dextran beads", "setting": "[1]; HUVECs, cotreatment for 5 h", "value": "colocalize with dextran beads"},
      {"measurement": "entry of the peptide into HUVECs", "setting": "[1]", "value": "enter the HUVECs"}
    ]},
    {"molecule": "GGCRGDMFGCGGLLFIHFRIGSRHSRIG-NH2 (disulfide 3-10; not fully specified; also: with or without biotin, FITC label also used, also called chimeric peptide)", "note": "[TEAM-VP (SEQ ID No 2: GG*CRGDMFG*C-GG-[…]-amide)]", "values": [
      {"measurement": "binding result", "setting": "[5]", "value": "binds"}
    ]},
    {"molecule": "GGCRGDMFGCGG-NH2 (disulfide 3-10; also: labeled with FITC in the binding assays, Cyclised targeting part of TEAM-VP; also called FITC-CycRGD; CycRGD peptide)", "note": "[GG*CRGDMFG*CGG-amide (CycRGD)]", "values": [
      {"measurement": "binding result", "setting": "[6]", "value": "binds"}
    ]}
  ]
}
